Assays:
[1] = molecular target: Adenosine A2a (ADORA2A) receptor (Homo sapiens (Human), UniProt P29274); assay: ADORA2A Receptor Binding Assay; settings: radioligand binding, membrane stock
Procedure: ADORA1A and ADORA2A Receptor Binding Assay
2 μL of each compound (test compounds, high control compound, low control compound) was transferred into individual wells of an assay plate. Also to each individual well, 98 μL of Adenosine A1a membrane stock (for ADORA1A Receptor Binding Assay) or Adenosine A2a membrane stock (for ADORA2A Receptor Binding Assay) was dispensed, followed by 100 μL of radio-labeled ligand. Plates were then sealed, and incubated at room temperature for 1 hour (for ADORA1A Receptor Binding Assay) or 2 hours (for ADORA2A Receptor Binding Assay). Unifilter-96 GF/C filter plates were pre-soaked with 50 μL of 0.3% PEI per well for at least 30 min at room temperature. When binding assays were completed, reaction mixtures were filtered through GF/C plates using a Perkin Elmer Filtermate Harvester, and then each plate was washed 4× with cold wash buffer. Filter plates were then dried for 1 hour at 50° C. After drying, the bottom of the filter plate wells was sealed using Perkin Elmer Unifilter-96 backing seal tape. 50 μL of Perkin Elmer Microscint 20 cocktail was then added, and the top of the filter plate was then sealed using Perkin Elmer TopSeal-A sealing film. ^3H trapped on the filter was counted using a Perkin Elmer MicroBeta2 Reader. Data analysis was performed using GraphPad Prism 5 software, and the “Inhibition [% Control]” was calculated using the following equation: % Inh=(1−Background subtracted Assay value/Background subtracted HC value)*100.

[2] = molecular target: Adenosine A2B (ADORA2B) receptor (Homo sapiens (Human), UniProt P29275); assay: ADORA2B Receptor Binding Assay; settings: radioligand binding, membrane stock
Adenosine A2B (ADORA2B) receptor, sequence (P29275 whole entry): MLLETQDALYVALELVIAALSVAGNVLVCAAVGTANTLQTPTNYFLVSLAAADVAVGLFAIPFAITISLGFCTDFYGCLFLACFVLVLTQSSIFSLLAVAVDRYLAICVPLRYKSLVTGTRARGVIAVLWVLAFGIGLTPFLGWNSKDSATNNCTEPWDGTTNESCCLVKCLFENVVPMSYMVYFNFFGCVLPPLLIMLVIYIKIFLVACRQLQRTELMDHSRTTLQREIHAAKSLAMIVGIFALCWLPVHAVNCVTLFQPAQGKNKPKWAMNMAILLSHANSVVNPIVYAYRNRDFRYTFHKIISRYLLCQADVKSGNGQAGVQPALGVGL
Procedure: ADORA2B Receptor Binding Assay
100 μL of Adenosine A2B membrane stock was dispensed into individual wells of an assay plate. 1 μL of each compound (test compounds, high control compound, low control compound) was then transferred into individual wells, followed by 100 μL of radio-labeled ligand. Plates were then sealed, and incubated at room temperature for 1 hour. Unifilter-96 GF/C filter plates were pre-soaked with 50 μL of 0.5% BSA per well for at least 30 min at room temperature. When binding assays were completed, reaction mixtures were filtered through GF/C plates using a Perkin Elmer Filtermate Harvester, and then each plate was washed 4× with cold wash buffer. Filter plates were then dried for 1 hour at 50° C. After drying, the bottom of the filter plate wells was sealed using Perkin Elmer Unifilter-96 backing seal tape. 50 μL of Perkin Elmer Microscint 20 cocktail was then added, and the top of the filter plate was then sealed using Perkin Elmer TopSeal-A sealing film. ^3H trapped on the filter was counted using a Perkin Elmer MicroBeta2 Reader. Data analysis was performed using GraphPad Prism 5 software, and the “Inhibition[% Control]” was calculated using the following equation: % Inh=(1−Background subtracted Assay value/Background subtracted HC value)*100.

Adenosine A2a (ADORA2A) receptor, sequence (P29274 whole entry): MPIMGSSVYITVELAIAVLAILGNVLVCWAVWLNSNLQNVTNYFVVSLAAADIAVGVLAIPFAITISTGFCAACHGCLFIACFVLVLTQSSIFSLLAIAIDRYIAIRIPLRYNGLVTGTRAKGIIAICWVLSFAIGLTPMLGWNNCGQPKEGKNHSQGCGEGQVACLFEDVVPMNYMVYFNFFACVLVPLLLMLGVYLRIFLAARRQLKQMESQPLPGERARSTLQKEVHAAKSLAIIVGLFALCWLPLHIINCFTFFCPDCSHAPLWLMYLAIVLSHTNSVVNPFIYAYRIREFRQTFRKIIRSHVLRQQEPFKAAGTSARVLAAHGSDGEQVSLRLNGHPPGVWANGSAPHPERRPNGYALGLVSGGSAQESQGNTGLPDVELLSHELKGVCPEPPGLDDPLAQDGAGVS

Row | SMILES | IC50 [1] | IC50 [2]
1 | Cc1nc2cc(N)nc(-c3ccc(C)o3)n2n1 [Compound 1, 2-Methyl-5-(5-methylfuran-2-yl)-[1,2,4]triazolo[1,5-c]pyrimidin-7-amine] | < 10 nM | 10 to 100 nM
2 | Cc1nc2cc(NC(=O)C3CC3)nc(-c3ccc(C)o3)n2n1 [Compound 2, N-(2-methyl-5-(5-methylfuran-2-yl)-[1,2,4]triazolo[1,5-c]pyrimidin-7-yl)cyclopropanecarboxamide] | < 10 nM | < 10 nM
3 | COc1ccc(Cc2nc3cc(N)nc(-c4ccc(C)o4)n3n2)cc1 [Compound 3, 2-[(4-methoxyphenyl)methyl]-5-(5-methylfuran-2-yl)-[1,2,4]triazolo[1,5-c]pyrimidin-7-amine] | 10 to 100 nM | 100 to 1000 nM
4 | COc1ccc(Cc2nc3cc(NC(=O)C4CC4)nc(-c4ccc(C)o4)n3n2)cc1 [Compound 4] | < 10 nM | < 10 nM
5 | CCC(=O)Nc1cc2nc(C)nn2c(-c2ccc(C)o2)n1 [Compound 5, N-[2-methyl-5-(5-methylfuran-2-yl)-[1,2,4]triazolo[1,5-c]pyrimidin-7-yl]propanamide] | < 10 nM | 10 to 100 nM
6 | Cc1nc2cc(NC(=O)C(C)(C)C)nc(-c3ccc(C)o3)n2n1 [Compound 6, 2,2-dimethyl-N-[2-methyl-5-(5-methylfuran-2-yl)-[1,2,4]triazolo[1,5-c]pyrimidin-7-yl]propanamide] | < 10 nM | > 1000 nM
7 | CCc1nc2cc(N)nc(-c3ccc(C)o3)n2n1 [Compound 7, 2-ethyl-5-(5-methylfuran-2-yl)-[1,2,4]triazolo[1,5-c]pyrimidin-7-amine] | < 10 nM | 100 to 1000 nM
8 | CCc1nc2cc(NC(=O)C3CC3)nc(-c3ccc(C)o3)n2n1 [Compound 8, N-[2-ethyl-5-(5-methylfuran-2-yl)-[1,2,4]triazolo[1,5-c]pyrimidin-7-yl]cyclopropanecarboxamide] | < 10 nM | 10 to 100 nM
9 | Cc1nc2cc(NC(=O)[C@@H]3CCCN3)nc(-c3ccc(C)o3)n2n1 [Compound 9, (2S)-N-[2-methyl-5-(5-methylfuran-2-yl)-[1,2,4]triazolo[1,5-c]pyrimidin-7-yl]pyrrolidine-2-carboxamide] | 10 to 100 nM | –
10 | Cc1nc2cc(NC(=O)C3CCC3)nc(-c3ccc(C)o3)n2n1 [Compound 10, N-[2-methyl-5-(5-methylfuran-2-yl)-[1,2,4]triazolo[1,5-c]pyrimidin-7-yl]cyclobutanecarboxamide] | < 10 nM | 10 to 100 nM
11 | Cc1nc2c(Cl)c(N)nc(-c3ccc(C)o3)n2n1 [Compound 11, 8-chloro-2-methyl-5-(5-methylfuran-2-yl)-[1,2,4]triazolo[1,5-c]pyrimidin-7-amine] | < 10 nM | < 10 nM
12 | Cc1ccc(-c2nc(NC(=O)C3CC3)cc3nc(C(C)C)nn23)o1 [Compound 12, N-[5-(5-methylfuran-2-yl)-2-propan-2-yl-[1,2,4]triazolo[1,5-c]pyrimidin-7-yl]cyclopropanecarboxamide] | < 10 nM | < 10 nM
13 | Cc1ccc(-c2nc(N)cc3nc(C(C)C)nn23)o1 [Compound 13, 5-(5-methylfuran-2-yl)-2-propan-2-yl-[1,2,4]triazolo[1,5-c]pyrimidin-7-amine] | < 10 nM | 100 to 1000 nM
14 | Cc1nc2cc(NC(=O)C3CNC3)nc(-c3ccc(C)o3)n2n1 [Compound 14, N-[2-methyl-5-(5-methylfuran-2-yl)-[1,2,4]triazolo[1,5-c]pyrimidin-7-yl]azetidine-3-carboxamide] | < 10 nM | 10 to 100 nM
15 | Cc1nc2c(Cl)c(NC(=O)C3CC3)nc(-c3ccc(C)o3)n2n1 [Compound 15, N-[8-chloro-2-methyl-5-(5-methylfuran-2-yl)-[1,2,4]triazolo[1,5-c]pyrimidin-7-yl]cyclopropanecarboxamide] | < 10 nM | 100 to 1000 nM
16 | Cc1nc2c(Br)c(N)nc(-c3ccc(C)o3)n2n1 [Compound 16, 8-bromo-2-methyl-5-(5-methylfuran-2-yl)-[1,2,4]triazolo[1,5-c]pyrimidin-7-amine] | < 10 nM | < 10 nM

Row | SMILES | IC50 [1] | IC50 [2]
17 | Cc1nc2cc(NC(=O)[C@H]3CCCN3)nc(-c3ccc(C)o3)n2n1 [Compound 17, (2R)-N-[2-methyl-5-(5-methylfuran-2-yl)-[1,2,4]triazolo[1,5-c]pyrimidin-7-yl]pyrrolidine-2-carboxamide] | < 10 nM | –
18 | Cc1nc2cc(NC(=O)C3CN(C)C3)nc(-c3ccc(C)o3)n2n1 [Compound 18, 1-methyl-N-[2-methyl-5-(5-methylfuran-2-yl)-[1,2,4]triazolo[1,5-c]pyrimidin-7-yl]azetidine-3-carboxamide] | < 10 nM | 10 to 100 nM
19 | Cc1nc2c(C)c(NC(=O)C3CC3)nc(-c3ccc(C)o3)n2n1 [Compound 19, N-[2,8-dimethyl-5-(5-methylfuran-2-yl)-[1,2,4]triazolo[1,5-c]pyrimidin-7-yl]cyclopropanecarboxamide] | 10 to 100 nM | 100 to 1000 nM
20 | Cc1ccc(-c2nc(NC(=O)C3CC3)cc3nc(C(F)(F)F)nn23)o1 [Compound 20, N-[5-(5-methylfuran-2-yl)-2-(trifluoromethyl)-[1,2,4]triazolo[1,5-c]pyrimidin-7-yl]cyclopropanecarboxamide] | < 10 nM | < 10 nM
21 | Cc1ccc(-c2nc(N)cc3nc(C(F)(F)F)nn23)o1 [Compound 21, 5-(5-methylfuran-2-yl)-2-(trifluoromethyl)-[1,2,4]triazolo[1,5-c]pyrimidin-7-amine] | < 10 nM | 10 to 100 nM
22 | Cc1nc2c(C)c(N)nc(-c3ccc(C)o3)n2n1 [Compound 22, 2,8-dimethyl-5-(5-methylfuran-2-yl)-[1,2,4]triazolo[1,5-c]pyrimidin-7-amine] | < 10 nM | 10 to 100 nM
23 | CNc1nc(-c2ccc(C)o2)n2nc(C)nc2c1Cl [Compound 23, 8-chloro-N,2-dimethyl-5-(5-methylfuran-2-yl)-[1,2,4]triazolo[1,5-c]pyrimidin-7-amine] | 100 to 1000 nM | > 1000 nM
24 | Cc1nc2c(Cl)c(N(C)C)nc(-c3ccc(C)o3)n2n1 [Compound 24, 8-chloro-N,N,2-trimethyl-5-(5-methylfuran-2-yl)-[1,2,4]triazolo[1,5-c]pyrimidin-7-amine] | > 1000 nM | > 1000 nM
25 | CC(=O)Nc1cc2nc(C)nn2c(-c2ccc(C)o2)n1 [Compound 25, N-[2-methyl-5-(5-methylfuran-2-yl)-[1,2,4]triazolo[1,5-c]pyrimidin-7-yl]acetamide] | < 10 nM | < 10 nM
26 | Cc1nc2c(C#N)c(N)nc(-c3ccc(C)o3)n2n1 [Compound 26, 7-amino-2-methyl-5-(5-methylfuran-2-yl)-[1,2,4]triazolo[1,5-c]pyrimidine-8-carbonitrile] | < 10 nM | < 10 nM
27 | Cc1nc2c3sc(=O)[nH]c3nc(-c3ccc(C)o3)n2n1 [Compound 27, 4-methyl-7-(5-methylfuran-2-yl)-12-thia-3,5,6,8,10-pentazatricyclo[7.3.0.0^2,6]dodeca-1(9),2,4,7-tetraen-l1-one] | 10 to 100 nM | 10 to 100 nM
28 | Cc1nc2c3c(nc(-c4ccc(C)o4)n2n1)NCC3(C)C [Compound 28, 4,12,12-trimethyl-7-(5-methylfuran-2-yl)-3,5,6,8,10-pentazatricyclo[7.3.0.0^2,6]dodeca-1(9),2,4,7-tetraene] | 10 to 100 nM | 100 to 1000 nM
29 | Cc1nc2c(Br)c(NC(=O)C3CC3)nc(-c3ccco3)n2n1 [Compound 31, N-[8-bromo-5-(furan-2-yl)-2-methyl-[1,2,4]triazolo[1,5-c]pyrimidin-7-yl]cyclopropanecarboxamide] | 10 to 100 nM | –
30 | Cc1ccc(-c2nc(N)cn3ccnc23)o1 [Compound 191, 8-(5-methylfuran-2-yl)imidazo[1,2-a]pyrazin-6-amine] | 100 to 1000 nM | –
31 | CCOC(=O)c1cn2cc(NC(=O)C3CC3)nc(-c3ccc(C)o3)c2n1 [Compound 193, ethyl 6-(cyclopropanecarbonylamino)-8-(5-methylfuran-2-yl)imidazo[1,2-a]pyrazine-2-carboxylate] | 10 to 100 nM | –
32 | Cc1ccc(-c2nc(NC(=O)C3CC3)cn3cc(C(=O)O)nc23)o1 [Compound 194, 6-(cyclopropanecarbonylamino)-8-(5-methylfuran-2-yl)imidazo[1,2-a]pyrazine-2-carboxylic acid] | > 1000 nM | –
